Results on six molecules are retold here after paper PMC3136501 (PLoS ONE, 2011).

On the set-up of series [1]: method as in earlier work. Particulars: computed property from PubChem Compound database; cited from earlier work.
The target of the next series is T1, human OCT1 (Homo sapiens, UniProt O15245).
T1 sequence (O15245 1-554): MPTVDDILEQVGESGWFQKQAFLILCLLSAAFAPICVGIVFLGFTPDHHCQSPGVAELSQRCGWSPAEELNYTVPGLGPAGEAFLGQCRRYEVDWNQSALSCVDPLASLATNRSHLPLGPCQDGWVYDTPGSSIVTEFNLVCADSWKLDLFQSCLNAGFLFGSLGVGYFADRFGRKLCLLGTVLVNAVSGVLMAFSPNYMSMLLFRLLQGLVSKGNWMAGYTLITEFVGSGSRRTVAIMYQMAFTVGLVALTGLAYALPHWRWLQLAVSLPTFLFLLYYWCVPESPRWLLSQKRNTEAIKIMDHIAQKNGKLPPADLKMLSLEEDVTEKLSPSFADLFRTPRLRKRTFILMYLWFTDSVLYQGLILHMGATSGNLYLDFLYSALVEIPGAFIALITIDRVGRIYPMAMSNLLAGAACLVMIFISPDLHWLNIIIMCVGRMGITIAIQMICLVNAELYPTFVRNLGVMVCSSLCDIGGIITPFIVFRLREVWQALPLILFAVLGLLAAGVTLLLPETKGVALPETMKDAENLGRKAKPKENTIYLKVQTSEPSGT
The series can be described thus: Inhibition of OCT1-mediated metformin uptake in stably transfected HEK cells. The note with it: for IC50: 5 µM [14C]metformin uptake, 5 min, HEK-OCT1, means ± SE of 3 experiments. It is filed as cell-based. On the procedure:
SLC22A1 cDNA and SLC22A2 cDNA had been PCR-amplified from human liver and kidney, respectively, as reported elsewhere and cDNAs were provided by the German Cancer Research Center; the study and the use of the tissue were approved by the institutional review board of the German Cancer Center, Heidelberg, Germany. Since the data were analyzed anonymously, and tissues were left-over samples from diagnostic procedures, written informed consent had not been required and obtained. IRB specifically waived the need for consent due to the fact the human tissue material used was fully anonymized. SLC22A3 cDNA was amplified using SLC22A3-TrueClone (Origene, Rockville, MD, USA) as the template. SLC22A1 cDNA was cloned into the expression vector pcDNA3.1/Hygro(-) (Invitrogen, Darmstadt, Germany), SLC22A2 and SLC22A3 cDNA into pcDNA3.1(+) (Invitrogen). […] HEK cells were grown in DMEM (Sigma) supplemented with 10% fetal bovine serum (Sigma), 100 U⋅ml^−1 penicillin, and 100 µg⋅ml^−1 streptomycin (Lonza, Basel, Switzerland) at 37°C and 5% CO2. HEK cells were transfected with Metafectene Pro (Biontex, München, Germany). Selection of clones stably expressing OCT1 was carried out with 0.5 mg⋅ml^−1 hygromycin as described. Similarly, clones stably expressing OCT2 or OCT3 were selected with 800 µg⋅ml^−1 G418. HEK cells stably transfected with the empty pcDNA3.1(+) vector served as controls (HEK-Co). Cells were incubated with 5 mM butyrate 24 h before use to increase protein levels of recombinant transporters.
HEK cells (400000 cells/well) were seeded into 24-well cell culture plates (Greiner Bio-One, Frickenhausen, Germany) and grown for 48 h. Cell adherence was improved by coating plates with poly-L-lysine (Biochrom AG, Berlin, Germany) prior to cell plating. All uptake studies were carried out at 37°C as described. […] Uptake was stopped at indicated time points by removing the uptake buffer and immediately washing the cells 3 times with ice-cold uptake buffer. Cells were lysed with 0.2% SDS and intracellular radioactivity was determined by liquid scintillation counting (Hidex 300SL TDCR liquid scintillation counter, Turku, Finland).
OCT-specific metformin uptake was obtained by subtracting metformin uptake in the presence of 2 mM unlabeled 1-methyl-4-phenylpyridinium (MPP) from that in its absence. […] OCT-specific metformin uptake in the presence of a PPI was then calculated as percentage of that in the absence of the respective PPI (100% uninhibited). For each PPI concentration, 3 individual experiments each with 3 parallel measurements were performed. Apparent IC50 values for inhibition of metformin uptake by PPIs were calculated for each individual experiment by fitting the values to the Hill equation using GraphPad Prism 4 (GraphPad Software Inc., La Jolla, CA, USA). Values in Table 1 are given as the means ± SE of the 3 individual experiments.

The nature of series [2]: Pharmacokinetic data of PPIs in humans. It is filed as in vivo. The note with it: maximal total concentration in portal venous blood.
The conditions of series [3]: humans, maximal total concentration in systemic circulation, cited from earlier work.
The test system of a further series is OCT2. Further details: method as in PMID 21103969. The note with it: transport substrate; cited from earlier work.
The subject of a further series is OCT1. Further details: method as in PMID 21103969. Particulars: transport substrate; cited from earlier work.
For the next series, the system named is OCT3. More on the design: method as in PMID 21103969. Particulars: transport substrate; cited from earlier work.

Read-outs that look alike come from different tables or passages of the source.

Usually IC50 stands for the concentration that gives 50% inhibition. For orientation: Cmax means the peak of the concentration-time curve. One may read the Km as the concentration of substrate that gives half-maximal velocity.

On to `COc1ccc2[nH]c([S+]([O-])Cc3ncc(C)c(OC)c3C)nc2n1` (stereo not drawn) [Tenatoprazole], for which, in series [1], the Heavy atom count is 24 and the Tautomer count is 3. Moreover, the midpoint of inhibition against human OCT1, the IC50, lay at 23.3 ± 7.1 µM. In addition, the “Calculated Cport.vn.” value in series [2] (equation 1 in ref 56, dosage 40 mg (116 µmol)) was 17.2 µM. The Cmax in series [3] (dosage 40 mg (116 µmol)) is 10000 nM.
`C[n+]1ccc(-c2ccccc2)cc1` [MPP, 1-methyl-4-phenylpyridinium]: the Km in the series on OCT2 was 3 to 19 µM; in the series on OCT1, 15 to 32 µM; in the series on OCT3 it was 47 to 83 µM. The “Metformin uptake by HEK-OCT1 in the presence of MPP” value at human OCT1 (5 µM metformin, 2 mM unlabeled MPP) was “almost completely absent”.
On to `COc1ccc2[nH]c([S+]([O-])Cc3ncc(C)c(OC)c3C)nc2c1` (stereo not drawn) [Omeprazole], for which, in series [1], the Heavy atom count was 24 and the Tautomer count is given as 2. Also, the IC50 against human OCT1 worked out at 15.7 ± 3.8 µM. The “Calculated Cport.vn.” value in series [2] (equation 1 in ref 56, dosage 20 mg (58 µmol)) is 5.4 µM. Further, the Cmax in series [3] (dosage 20 mg (58 µmol)) was 1800 nM.
With `Cc1c(OCC(F)(F)F)ccnc1C[S+]([O-])c1nc2ccccc2[nH]1` (stereo not drawn) [Lansoprazole], in series [1], the Heavy atom count is reported as 25 and the Tautomer count was 0. In addition, 35.8 ± 5.8 µM corresponded to half-maximal inhibition at human OCT1 (IC50). In series [2] (equation 1 in ref 56, dosage 30 mg (81 µmol)), the “Calculated Cport.vn.” value is listed as 7.8 µM. Besides, the Cmax in series [3] (dosage 30 mg (81 µmol)) is 2700 nM.
Take `COCCCOc1ccnc(C[S+]([O-])c2nc3ccccc3[nH]2)c1C` (stereo not drawn) [Rabeprazole]: in series [1], the Heavy atom count is 25 and the Tautomer count is on record as 0. On human OCT1, this molecule had an IC50 of 3 ± 1.7 µM. For the same molecule, on human OCT1 (low concentrations of PPI, Figure 3), the “OCT1-mediated metformin uptake at low PPI concentrations” value is “activated”. In series [2] (equation 1 in ref 56, dosage 20 mg (56 µmol)), the “Calculated Cport.vn.” value is recorded as 4.7 µM. Further, in series [3] (dosage 20 mg (56 µmol)), the Cmax was 1200 nM.
As to `COc1ccnc(C[S+]([O-])c2nc3ccc(OC(F)F)cc3[nH]2)c1OC` (stereo not drawn) [Pantoprazole], in series [1], the Heavy atom count is given as 26 and the Tautomer count is 2. Further, the IC50 on human OCT1 was found to be 30.8 ± 8.8 µM. In addition, the “Calculated Cport.vn.” value in series [2] (equation 1 in ref 56, dosage 40 mg (104 µmol)) is on record as 12.0 µM. For the same molecule, the Cmax in series [3] (dosage 40 mg (104 µmol)) was 5500 nM.
